# Results published in ChEMBL document CHEMBL5370537, “Aporphines: A privileged scaffold in CNS drug discovery” (Eur J Med Chem, 2023).
# Legend:
# BV-2 [1] = experiment: Inhibition of NO production in LPS-induced mouse BV-2 cells incubated for 24 hrs by Griess reagent based microplate reader analysis; format: functional, cell-based; details: BV-2, 24 h
# D(2) dopamine receptor [2] = target: T1, D(2) dopamine receptor (Homo sapiens, UniProt P14416); experiment: Antagonist activity at D2R (unknown origin); format: functional
# Acetylcholinesterase = Acetylcholinesterase (Electrophorus electricus, UniProt O42275); experiment: Inhibition of Electrophorus electricus AChE using ATCI as substrate pre-incubated for 10 mins followed by substrate addition measured after 5 mins by microplate reader analysis
# Cholinesterase = Cholinesterase (Equus caballus, UniProt P81908); experiment: Inhibition of equine serum BuChE using BTCI as substrate pre-incubated for 10 mins followed by substrate addition measured after 5 mins by microplate reader analysis
# BV-2 [3] = experiment: Potency index, ratio of minocycline IC50 to test compound IC50 for inhibition of NO production in LPS-induced mouse BV-2 cells incubated for 24 hrs by Griess reagent based microplate reader analysis; format: functional
# D(1A) dopamine receptor = D(1A) dopamine receptor (Homo sapiens, UniProt P21728); experiment: Antagonist activity at D1R (unknown origin) transfected in HEK293 cells by FLIPR assay
# [4] = target: T2, 5-hydroxytryptamine receptor 2C (Homo sapiens, UniProt P28335); experiment: Partial agonist activity at human 5-HT2C stably transfected in HEK293T cells measured after 18 to 24 hrs by FLIPR assay; format: functional, cell-based
# T2 sequence (P28335 whole entry): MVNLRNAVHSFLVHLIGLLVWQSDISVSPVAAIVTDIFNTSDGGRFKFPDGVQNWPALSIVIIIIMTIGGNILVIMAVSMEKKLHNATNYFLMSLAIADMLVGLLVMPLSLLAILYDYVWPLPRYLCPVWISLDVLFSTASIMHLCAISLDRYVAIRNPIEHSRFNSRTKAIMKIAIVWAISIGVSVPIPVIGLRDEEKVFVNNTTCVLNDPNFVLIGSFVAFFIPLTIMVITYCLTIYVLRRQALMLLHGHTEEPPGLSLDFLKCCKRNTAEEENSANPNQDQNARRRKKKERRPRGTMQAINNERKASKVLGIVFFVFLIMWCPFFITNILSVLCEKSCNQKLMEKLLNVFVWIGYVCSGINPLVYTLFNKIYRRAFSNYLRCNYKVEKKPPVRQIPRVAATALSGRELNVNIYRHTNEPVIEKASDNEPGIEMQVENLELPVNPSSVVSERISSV
# [5] = target: T3, 5-hydroxytryptamine receptor 2C (Homo sapiens) (UniProt P28335); experiment: Partial agonist activity at human 5-HT2C stably transfected in HEK293T cells measured after 18 to 24 hrs by FLIPR assay relative to control; format: functional, cell-based; details: filed as partial agonist, time 18-24 hrs
# T3 sequence (whole entry): T2 sequence (P28335 whole entry)
# [6] = target: Acetylcholinesterase (Electrophorus electricus) (UniProt O42275); experiment: Potency index, ratio of (R)-Stephanine IC50 to test compound IC50 for inhibition of Electrophorus electricus AChE using ATCI as substrate pre-incubated for 10 mins followed by substrate addition measured after 5 mins by microplate reader analysis; details: time 15.0 min
# [7] = target: Acetylcholinesterase (Electrophorus electricus) (UniProt O42275); experiment: Potency index, ratio of (R)-Roemerine IC50 to test compound IC50 for inhibition of Electrophorus electricus AChE using ATCI as substrate pre-incubated for 10 mins followed by substrate addition measured after 5 mins by microplate reader analysis; details: time 15.0 min
# [8] = target: Acetylcholinesterase (Electrophorus electricus) (UniProt O42275); experiment: Potency index, ratio of (S)-Dicentrine IC50 to test compound IC50 for inhibition of Electrophorus electricus AChE using ATCI as substrate pre-incubated for 10 mins followed by substrate addition measured after 5 mins by microplate reader analysis; details: time 15.0 min
# [9] = target: T2, 5-hydroxytryptamine receptor 2C; experiment: Agonist activity at recombinant human 5-HT2C stably expressed in human T-REx-293 cells measured after 60 mins by FLIPR assay; format: functional, cell-based
# [10] = target: T3, 5-hydroxytryptamine receptor 2C (Homo sapiens); experiment: Agonist activity at recombinant human 5-HT2C stably expressed in human T-REx-293 cells measured after 60 mins by FLIPR assay relative to control; format: functional, cell-based; details: filed as agonist
# D(2) dopamine receptor [11] = target: T1, D(2) dopamine receptor; experiment: Partial agonist activity at D2R (unknown origin) expressed in HEK293 cells relative to control; format: functional, cell-based; details: filed as partial agonist
# [12] = target: 5-hydroxytryptamine receptor 7 (Homo sapiens, UniProt P34969); experiment: Inverse agonist activity at 5-HT7 (unknown origin); format: functional
# [13] = target: 5-hydroxytryptamine receptor 2A (Homo sapiens, UniProt P28223); experiment: Inverse agonist activity at 5-HT2A (unknown origin); format: functional
# [14] = target: T2, 5-hydroxytryptamine receptor 2C; experiment: Antagonist activity at 5-HT2C (unknown origin); format: functional
# [15] = target: T2, 5-hydroxytryptamine receptor 2C; experiment: Agonist activity at 5-HT2C (unknown origin); format: functional
# [16] = target: T3, 5-hydroxytryptamine receptor 2C (Homo sapiens); experiment: Agonist activity at 5-HT2C (unknown origin) relative to control; format: functional; details: filed as agonist
# T1 sequence (P14416 whole entry): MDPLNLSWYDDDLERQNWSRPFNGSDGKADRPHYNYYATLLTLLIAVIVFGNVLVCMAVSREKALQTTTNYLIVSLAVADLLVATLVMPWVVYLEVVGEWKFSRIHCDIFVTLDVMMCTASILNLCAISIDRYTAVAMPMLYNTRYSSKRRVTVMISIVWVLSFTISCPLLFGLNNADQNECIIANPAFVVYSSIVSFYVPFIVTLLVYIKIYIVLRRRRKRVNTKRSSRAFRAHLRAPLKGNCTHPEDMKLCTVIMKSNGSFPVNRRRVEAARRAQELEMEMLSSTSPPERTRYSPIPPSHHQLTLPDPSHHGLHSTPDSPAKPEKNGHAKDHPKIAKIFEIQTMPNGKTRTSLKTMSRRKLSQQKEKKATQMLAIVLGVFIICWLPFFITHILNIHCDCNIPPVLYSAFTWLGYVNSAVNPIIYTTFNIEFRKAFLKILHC
# Chain of Acetylcholinesterase (Electrophorus electricus) (O42275 24-633 limits assumed): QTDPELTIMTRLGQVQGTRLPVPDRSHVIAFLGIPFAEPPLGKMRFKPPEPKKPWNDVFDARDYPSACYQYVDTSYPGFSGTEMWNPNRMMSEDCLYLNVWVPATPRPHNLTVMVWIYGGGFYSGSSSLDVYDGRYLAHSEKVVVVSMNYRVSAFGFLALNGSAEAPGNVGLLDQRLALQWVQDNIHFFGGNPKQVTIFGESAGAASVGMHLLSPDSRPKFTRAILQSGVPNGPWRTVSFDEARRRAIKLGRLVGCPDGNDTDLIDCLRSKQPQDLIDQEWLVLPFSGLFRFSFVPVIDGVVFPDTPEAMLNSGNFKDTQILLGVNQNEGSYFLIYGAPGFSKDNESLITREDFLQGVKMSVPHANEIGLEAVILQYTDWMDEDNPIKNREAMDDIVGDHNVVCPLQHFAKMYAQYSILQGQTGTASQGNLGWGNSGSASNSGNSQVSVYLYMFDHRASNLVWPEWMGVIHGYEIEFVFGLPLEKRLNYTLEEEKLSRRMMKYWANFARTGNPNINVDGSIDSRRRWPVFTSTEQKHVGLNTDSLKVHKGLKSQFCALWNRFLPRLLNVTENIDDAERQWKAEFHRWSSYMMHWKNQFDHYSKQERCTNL
# Chain of Acetylcholinesterase (O42275 whole entry): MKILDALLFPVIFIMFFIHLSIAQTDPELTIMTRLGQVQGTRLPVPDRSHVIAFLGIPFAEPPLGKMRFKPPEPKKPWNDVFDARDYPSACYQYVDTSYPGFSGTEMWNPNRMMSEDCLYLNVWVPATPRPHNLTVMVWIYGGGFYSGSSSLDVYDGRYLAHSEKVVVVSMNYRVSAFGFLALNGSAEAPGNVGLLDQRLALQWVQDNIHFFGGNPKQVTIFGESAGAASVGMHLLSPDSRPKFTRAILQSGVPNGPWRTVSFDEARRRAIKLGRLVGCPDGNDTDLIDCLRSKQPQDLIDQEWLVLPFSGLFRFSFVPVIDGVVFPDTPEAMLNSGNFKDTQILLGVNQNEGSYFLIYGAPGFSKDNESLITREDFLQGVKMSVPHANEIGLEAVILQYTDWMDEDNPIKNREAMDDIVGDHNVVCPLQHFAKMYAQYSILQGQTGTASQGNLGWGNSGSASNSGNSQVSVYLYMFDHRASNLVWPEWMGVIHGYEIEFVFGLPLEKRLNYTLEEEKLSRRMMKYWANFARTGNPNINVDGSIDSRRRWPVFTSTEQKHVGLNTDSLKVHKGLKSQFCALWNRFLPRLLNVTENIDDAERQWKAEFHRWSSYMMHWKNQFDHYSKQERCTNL
# Chain of Cholinesterase (P81908 whole entry): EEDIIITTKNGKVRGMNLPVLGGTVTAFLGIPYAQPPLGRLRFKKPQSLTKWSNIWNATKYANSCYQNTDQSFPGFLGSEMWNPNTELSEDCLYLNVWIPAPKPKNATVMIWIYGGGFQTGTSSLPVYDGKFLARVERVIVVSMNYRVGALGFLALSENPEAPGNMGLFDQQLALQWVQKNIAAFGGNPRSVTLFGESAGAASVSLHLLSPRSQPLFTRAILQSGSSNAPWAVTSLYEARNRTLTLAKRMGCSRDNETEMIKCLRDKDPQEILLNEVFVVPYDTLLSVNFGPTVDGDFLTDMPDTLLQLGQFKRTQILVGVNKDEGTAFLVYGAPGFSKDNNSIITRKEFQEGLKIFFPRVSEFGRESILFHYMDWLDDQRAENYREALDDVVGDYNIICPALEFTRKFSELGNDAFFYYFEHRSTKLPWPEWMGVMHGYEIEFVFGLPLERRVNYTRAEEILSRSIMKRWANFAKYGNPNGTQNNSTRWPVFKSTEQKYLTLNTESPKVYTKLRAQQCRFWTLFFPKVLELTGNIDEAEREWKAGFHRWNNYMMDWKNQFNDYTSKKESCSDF
# Chain of D(1A) dopamine receptor (P21728 whole entry): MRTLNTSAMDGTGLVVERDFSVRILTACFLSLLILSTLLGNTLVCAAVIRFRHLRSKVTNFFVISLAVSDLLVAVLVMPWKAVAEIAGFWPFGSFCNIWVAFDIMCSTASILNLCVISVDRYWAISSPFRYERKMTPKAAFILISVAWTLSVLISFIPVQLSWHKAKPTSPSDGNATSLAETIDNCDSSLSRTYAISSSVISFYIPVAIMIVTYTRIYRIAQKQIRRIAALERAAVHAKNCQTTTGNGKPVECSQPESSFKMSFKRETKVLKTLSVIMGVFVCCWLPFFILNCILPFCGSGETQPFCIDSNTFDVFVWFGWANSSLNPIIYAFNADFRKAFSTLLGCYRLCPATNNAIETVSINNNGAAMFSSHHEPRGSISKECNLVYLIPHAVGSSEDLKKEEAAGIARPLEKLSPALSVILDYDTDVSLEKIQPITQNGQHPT
# Chain of 5-hydroxytryptamine receptor 2A (P28223 whole entry): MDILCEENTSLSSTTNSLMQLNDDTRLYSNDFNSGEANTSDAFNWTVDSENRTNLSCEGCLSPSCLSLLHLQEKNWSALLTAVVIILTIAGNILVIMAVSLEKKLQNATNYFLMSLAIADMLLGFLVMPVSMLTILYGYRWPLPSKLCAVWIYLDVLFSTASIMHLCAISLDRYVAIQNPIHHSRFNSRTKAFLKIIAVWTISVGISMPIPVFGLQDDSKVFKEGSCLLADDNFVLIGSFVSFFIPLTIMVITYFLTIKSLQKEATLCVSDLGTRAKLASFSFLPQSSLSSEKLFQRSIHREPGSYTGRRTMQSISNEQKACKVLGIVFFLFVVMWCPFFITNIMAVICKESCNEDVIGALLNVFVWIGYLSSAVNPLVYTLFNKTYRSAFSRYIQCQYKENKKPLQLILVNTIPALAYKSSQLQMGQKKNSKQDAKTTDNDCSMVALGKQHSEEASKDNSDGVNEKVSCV
# Chain of 5-hydroxytryptamine receptor 7 (P34969 whole entry): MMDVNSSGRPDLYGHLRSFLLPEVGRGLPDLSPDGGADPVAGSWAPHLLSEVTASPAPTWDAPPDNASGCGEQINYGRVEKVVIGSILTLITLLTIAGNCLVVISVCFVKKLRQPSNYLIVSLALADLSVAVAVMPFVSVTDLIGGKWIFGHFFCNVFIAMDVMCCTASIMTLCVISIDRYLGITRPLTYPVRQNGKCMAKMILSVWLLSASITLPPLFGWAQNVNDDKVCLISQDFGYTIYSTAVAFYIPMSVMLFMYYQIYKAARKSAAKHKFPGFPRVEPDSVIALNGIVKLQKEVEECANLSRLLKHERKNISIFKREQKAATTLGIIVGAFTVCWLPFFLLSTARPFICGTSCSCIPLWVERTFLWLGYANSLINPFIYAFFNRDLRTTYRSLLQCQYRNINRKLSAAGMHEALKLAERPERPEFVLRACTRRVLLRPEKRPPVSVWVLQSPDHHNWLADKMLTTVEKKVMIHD
structure (smiles),measurement,setting,value
COc1ccc2c(c1)cc1c3c(cc4c(c32)OCO4)CCN1C,IC50,BV-2 [1],31.6 µM
COc1cc2c3c(c1OC)-c1cc(O)ccc1C[C@H]3NCC2,IC50,D(2) dopamine receptor [2],5.2 µM
COc1ccc2c(c1)C[C@@H]1c3c(cc4c(c3-2)OCO4)CCN1C,IC50,Acetylcholinesterase,11.9 µM
same,IC50,Cholinesterase,16.6 µM
COc1ccc2c(c1OC)[C@@H](O)[C@@H]1c3c(cc4c(c3-2)OCO4)CCN1C,IC50,Acetylcholinesterase,4.3 µM
same,IC50,Cholinesterase,22.5 µM
COc1cccc2c1C[C@@H]1c3c(cc4c(c3-2)OCO4)CCN1C [STEPHANINE],IC50,D(2) dopamine receptor [2],0.85 µM
same,IC50,Acetylcholinesterase,11.3 µM
same,IC50,Cholinesterase,2.8 µM
same,IC50,BV-2 [1],20.3 µM
same,Ratio IC50,BV-2 [3],~4
COc1c(O)cc2c3c1-c1ccccc1C[C@H]3NCC2 [(-)-ASIMILOBINE],IC50,D(1A) dopamine receptor,7.2 µM
same,IC50,Acetylcholinesterase,141 µM
same,IC50,Cholinesterase,10.1 µM
same,EC50,[4],0.653 µM
CN1CCc2cc3c(c4c2[C@H]1[C@H](O)c1ccccc1-4)OCO3,IC50,Acetylcholinesterase,17.6 µM
same,IC50,Cholinesterase,7.42 µM
COc1cccc2c1[C@@H](O)[C@@H]1c3c(cc4c(c3-2)OCO4)CCN1C,IC50,Acetylcholinesterase,6.12 µM
same,IC50,Cholinesterase,5.87 µM
COc1cc2c3c(c1OC)-c1ccccc1CC3NCC2 (stereo not given) [NORNUCIFERINE],IC50,D(1A) dopamine receptor,38.5 µM
same,EC50,[4],0.308 µM
same,Emax,[5],65.6%
COc1cc2cc3c4c(cc5c(c4c2cc1OC)OCO5)CCN3C [DEHYDRODICENTRINE],IC50,Acetylcholinesterase,1.09 µM
same,IC50,Cholinesterase,5.57 µM
same,Ratio IC50,[6],4
same,Ratio IC50,[7],4
same,Ratio IC50,[8],4
COc1ccc2c3c1-c1ccccc1CC3NCC2 (stereo not given),EC50,[9],0.103 µM
same,Emax,[10],96%
COc1cc2c3c(c1OC)-c1ccccc1CC3N(C)CC2 (stereo not drawn) [(+/-)-NUCIFERINE],Emax,D(2) dopamine receptor [11],67%
same,EC50,[12],0.15 µM
same,IC50,[13],0.478 µM
same,IC50,[14],0.131 µM
Oc1cc2c3c(c1Cl)-c1ccccc1C[C@@H]3NCC2,EC50,[15],0.0079 µM
same,Emax,[16],89.8%
